# Test results as given in EP4745137A1 (Gluetacs Therapeutics (Shanghai) Co., Ltd., priority 2023, dated 2025).
# Columns and labels:
# IKZF2 = molecular target: T1, IKZF2 (Homo sapiens, UniProt Q96SW2+Q9UKS7); experiment: Western-blot assay of substrate protein degradation in hPBMCs, IKZF2; format: cell-based; details: 24 hours of compound treatment, compounds tested at 50 nM and 500 nM (concentration of the table not stated)
# T1 construct: endogenous in cells; host or cells: hPBMCs (Milecell Biotechnologies)
# IKZF1 = molecular target: T2, IKZF1 (Homo sapiens, UniProt Q13422+Q96SW2); experiment: Western-blot assay of substrate protein degradation in hPBMCs, IKZF1; format: cell-based; details: 24 hours of compound treatment, compounds tested at 50 nM and 500 nM (concentration of the table not stated)
# T2 construct: endogenous in cells; host or cells: hPBMCs (Milecell Biotechnologies)
# TMD8 = experiment: Tumor cell proliferation inhibition (CellTiter-Meiluncell Luminescent Cell Viability Assay), TMD8; details: Homo sapiens, TMD8, 96 h, read-out: inhibitory activity (IC50, nM) against tumor cells proliferation, TMD8
# [1] = molecular target: T3, human Cereblon WT GST-tagged protein (Homo sapiens, UniProt Q96SW2); experiment: CRBN-binding affinity by HTRF (CEREBLON BINDING kit); details: HTRF inhibitory activity, CEREBLON BINDING kit; read-out: HTRF IC50
# T3 construct: purchased CISBIO 64BDCRBNPEH
# WEE1 = molecular target: T4, WEE1 (Homo sapiens, UniProt P30291+Q96SW2); experiment: Western-blot assay of substrate protein degradation in hPBMCs, WEE1; format: cell-based; details: 24 hours of compound treatment, compounds tested at 50 nM and 500 nM (concentration of the table not stated)
# T4 construct: endogenous in cells; host or cells: hPBMCs (Milecell Biotechnologies)
# [2] = test system: Human breast cancer cells (MDA-MB-231); experiment: Tumor cell proliferation inhibition (CellTiter-Meiluncell Luminescent Cell Viability Assay), MDA-MB-231; details: MDA-MB-231, 96 h, read-out: inhibitory activity (IC50, nM) against tumor cells proliferation, MDA-MB-231
# Description: The tumor cells used herein were cultured in a cell culture medium listed in table 2 at 37°C in an incubator with 5% CO2. Prior to experimentation, all cell lines used were correctly identified by STR profiling, and tested negative for mycoplasma contamination using a mycoplasma detection kit through routine screenings.
# On the following day, the test compounds of the present disclosure were subjected to serial dilution. […] Subsequently, 0.5 µL of the test compound dilution was transferred into the 96-well plate containing the cells, with each well containing 100 µL of cell culture medium. […] Into the 96-well plate, the diluted test compounds and corresponding detection reagents were added, resulting in final test compound concentrations of 500 nM and 10 nM, respectively. The experimental procedure is described below using the diluted 2 µM test compound as an example.
# After the cells were treated with the compounds of the present disclosure for a specified period (the treatment durations were shown in Table 3), the cell viability assay reagent was added to the culture medium according to the kit's instructions to determine cell viability. […] All controls were treated using the same procedure as the compounds of the present disclosure. The growth inhibition curves for the compounds of the present disclosure were plotted using Prism GraphPad software, and the IC50 values were calculated therefrom.
# GSPT1 = molecular target: T5, GSPT1 (Homo sapiens, UniProt P15170+Q96SW2); experiment: Western-blot assay of substrate protein degradation in hPBMCs, GSPT1; format: cell-based; details: 24 hours of compound treatment, compounds tested at 50 nM and 500 nM (concentration of the table not stated)
# T5 construct: endogenous in cells; host or cells: hPBMCs (Milecell Biotechnologies)
# CK1α = molecular target: T6, CK1α (Homo sapiens, UniProt P48729+Q96SW2); experiment: Western-blot assay of substrate protein degradation in hPBMCs, CK1α; format: cell-based; details: 24 hours of compound treatment, compounds tested at 50 nM and 500 nM (concentration of the table not stated)
# T6 construct: endogenous in cells; host or cells: hPBMCs (Milecell Biotechnologies)
# NCI-H1975 = experiment: Tumor cell proliferation inhibition (CellTiter-Meiluncell Luminescent Cell Viability Assay), NCI-H1975; details: Homo sapiens, NCI-H1975, 96 h, read-out: inhibitory activity (IC50, nM) against tumor cells proliferation, H1975
# IKZF3 = molecular target: T7, IKZF3 (Homo sapiens, UniProt Q96SW2+Q9UKT9); experiment: Western-blot assay of substrate protein degradation in hPBMCs, IKZF3; format: cell-based; details: 24 hours of compound treatment, compounds tested at 50 nM and 500 nM (concentration of the table not stated)
# T7 construct: endogenous in cells; host or cells: hPBMCs (Milecell Biotechnologies)
# [3] = test system: Human acute T lymphocytic leukemia cells (Molt-4); experiment: Tumor cell proliferation inhibition (CellTiter-Meiluncell Luminescent Cell Viability Assay), Molt-4; details: MOLT-4, 96 h, read-out: inhibitory activity (IC50, nM) against tumor cells proliferation, Molt 4
# T6 sequence (P48729 whole entry): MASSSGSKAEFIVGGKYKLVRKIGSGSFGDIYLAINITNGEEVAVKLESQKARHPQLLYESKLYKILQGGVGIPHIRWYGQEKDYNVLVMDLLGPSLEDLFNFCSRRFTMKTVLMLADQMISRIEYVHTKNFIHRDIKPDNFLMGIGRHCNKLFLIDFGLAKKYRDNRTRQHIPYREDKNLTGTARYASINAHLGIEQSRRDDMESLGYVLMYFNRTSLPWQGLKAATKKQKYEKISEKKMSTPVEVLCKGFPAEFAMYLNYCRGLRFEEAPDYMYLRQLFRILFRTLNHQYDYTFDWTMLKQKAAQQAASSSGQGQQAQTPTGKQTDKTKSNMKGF
# T6 sequence (Q96SW2 whole entry): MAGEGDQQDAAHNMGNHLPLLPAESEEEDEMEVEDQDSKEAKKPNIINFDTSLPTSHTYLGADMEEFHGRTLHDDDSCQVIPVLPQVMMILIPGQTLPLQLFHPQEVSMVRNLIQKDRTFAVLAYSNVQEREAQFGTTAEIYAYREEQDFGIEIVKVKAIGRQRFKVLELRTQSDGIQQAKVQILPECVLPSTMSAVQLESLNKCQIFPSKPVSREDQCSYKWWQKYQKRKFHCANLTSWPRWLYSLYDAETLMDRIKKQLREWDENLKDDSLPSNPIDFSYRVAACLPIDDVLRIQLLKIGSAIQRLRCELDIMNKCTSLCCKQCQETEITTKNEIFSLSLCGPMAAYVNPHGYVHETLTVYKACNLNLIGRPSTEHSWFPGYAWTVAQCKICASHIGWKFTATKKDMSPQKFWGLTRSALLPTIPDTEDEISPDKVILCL
# T6 sequence (Q16531 whole entry partner): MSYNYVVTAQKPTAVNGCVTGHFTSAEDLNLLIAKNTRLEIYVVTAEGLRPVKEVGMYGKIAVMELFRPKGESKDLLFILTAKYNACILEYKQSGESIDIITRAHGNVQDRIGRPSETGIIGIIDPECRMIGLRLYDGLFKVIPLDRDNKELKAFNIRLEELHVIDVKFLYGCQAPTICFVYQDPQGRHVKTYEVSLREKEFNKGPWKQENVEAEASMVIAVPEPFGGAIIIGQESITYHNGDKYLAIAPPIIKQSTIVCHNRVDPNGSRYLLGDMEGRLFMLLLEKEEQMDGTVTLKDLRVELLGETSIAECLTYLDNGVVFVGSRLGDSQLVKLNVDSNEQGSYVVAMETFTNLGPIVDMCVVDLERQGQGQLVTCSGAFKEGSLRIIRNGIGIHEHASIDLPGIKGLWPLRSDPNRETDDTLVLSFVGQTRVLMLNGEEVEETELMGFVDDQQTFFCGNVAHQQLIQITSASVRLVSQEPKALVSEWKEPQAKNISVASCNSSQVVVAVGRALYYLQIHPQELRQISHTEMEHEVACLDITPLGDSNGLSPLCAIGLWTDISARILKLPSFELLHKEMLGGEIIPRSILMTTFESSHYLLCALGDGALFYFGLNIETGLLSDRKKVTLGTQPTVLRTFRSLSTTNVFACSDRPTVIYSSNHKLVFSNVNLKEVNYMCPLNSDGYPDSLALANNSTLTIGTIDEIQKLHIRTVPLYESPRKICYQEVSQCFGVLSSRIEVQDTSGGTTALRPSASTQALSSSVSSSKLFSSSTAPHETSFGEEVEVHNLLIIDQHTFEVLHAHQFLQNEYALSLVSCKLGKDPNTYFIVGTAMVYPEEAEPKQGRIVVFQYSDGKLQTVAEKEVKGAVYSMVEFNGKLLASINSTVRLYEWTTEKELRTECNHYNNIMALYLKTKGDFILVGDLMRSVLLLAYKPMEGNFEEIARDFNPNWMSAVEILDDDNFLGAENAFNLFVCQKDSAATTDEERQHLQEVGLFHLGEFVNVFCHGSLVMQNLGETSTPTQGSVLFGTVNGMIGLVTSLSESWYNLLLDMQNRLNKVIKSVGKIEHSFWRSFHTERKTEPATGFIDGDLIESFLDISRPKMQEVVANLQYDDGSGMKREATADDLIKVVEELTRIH
# T2 sequence (Q13422 whole entry): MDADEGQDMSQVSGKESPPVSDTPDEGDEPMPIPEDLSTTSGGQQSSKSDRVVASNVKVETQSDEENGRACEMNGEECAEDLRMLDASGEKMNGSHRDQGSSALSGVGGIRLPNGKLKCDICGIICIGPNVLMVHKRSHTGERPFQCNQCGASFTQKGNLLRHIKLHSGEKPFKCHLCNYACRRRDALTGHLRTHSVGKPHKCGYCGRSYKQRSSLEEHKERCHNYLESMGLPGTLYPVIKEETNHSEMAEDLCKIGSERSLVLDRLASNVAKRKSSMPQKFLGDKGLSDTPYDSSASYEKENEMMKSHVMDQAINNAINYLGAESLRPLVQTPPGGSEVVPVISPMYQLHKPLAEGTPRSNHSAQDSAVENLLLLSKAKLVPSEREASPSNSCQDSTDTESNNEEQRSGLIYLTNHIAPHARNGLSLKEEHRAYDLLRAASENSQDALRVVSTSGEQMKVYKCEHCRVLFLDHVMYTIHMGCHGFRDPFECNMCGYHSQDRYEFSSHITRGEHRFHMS
# T2 sequence (Q96SW2 whole entry): as the sequence (Q96SW2 whole entry) above
# T2 sequence (Q16531 whole entry partner): as the sequence (Q16531 whole entry partner) above
# T3 sequence (Q96SW2 whole entry): as the sequence (Q96SW2 whole entry) above
# T5 sequence (P15170 whole entry): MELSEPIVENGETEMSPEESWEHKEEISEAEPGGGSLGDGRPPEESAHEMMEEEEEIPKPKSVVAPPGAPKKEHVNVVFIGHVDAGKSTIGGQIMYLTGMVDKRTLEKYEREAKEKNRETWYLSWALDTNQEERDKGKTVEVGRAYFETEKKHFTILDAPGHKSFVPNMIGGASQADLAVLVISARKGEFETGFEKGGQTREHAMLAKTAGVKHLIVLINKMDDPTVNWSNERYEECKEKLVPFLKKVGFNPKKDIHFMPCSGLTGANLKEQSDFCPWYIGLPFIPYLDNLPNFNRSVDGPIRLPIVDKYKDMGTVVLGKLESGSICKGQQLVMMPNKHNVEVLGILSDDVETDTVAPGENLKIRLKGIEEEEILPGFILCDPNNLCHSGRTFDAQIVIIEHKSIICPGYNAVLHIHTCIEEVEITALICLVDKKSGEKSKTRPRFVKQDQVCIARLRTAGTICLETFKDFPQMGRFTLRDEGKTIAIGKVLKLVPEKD
# T5 sequence (Q96SW2 whole entry): as the sequence (Q96SW2 whole entry) above
# T5 sequence (Q16531 whole entry partner): as the sequence (Q16531 whole entry partner) above
# T4 sequence (P30291 whole entry): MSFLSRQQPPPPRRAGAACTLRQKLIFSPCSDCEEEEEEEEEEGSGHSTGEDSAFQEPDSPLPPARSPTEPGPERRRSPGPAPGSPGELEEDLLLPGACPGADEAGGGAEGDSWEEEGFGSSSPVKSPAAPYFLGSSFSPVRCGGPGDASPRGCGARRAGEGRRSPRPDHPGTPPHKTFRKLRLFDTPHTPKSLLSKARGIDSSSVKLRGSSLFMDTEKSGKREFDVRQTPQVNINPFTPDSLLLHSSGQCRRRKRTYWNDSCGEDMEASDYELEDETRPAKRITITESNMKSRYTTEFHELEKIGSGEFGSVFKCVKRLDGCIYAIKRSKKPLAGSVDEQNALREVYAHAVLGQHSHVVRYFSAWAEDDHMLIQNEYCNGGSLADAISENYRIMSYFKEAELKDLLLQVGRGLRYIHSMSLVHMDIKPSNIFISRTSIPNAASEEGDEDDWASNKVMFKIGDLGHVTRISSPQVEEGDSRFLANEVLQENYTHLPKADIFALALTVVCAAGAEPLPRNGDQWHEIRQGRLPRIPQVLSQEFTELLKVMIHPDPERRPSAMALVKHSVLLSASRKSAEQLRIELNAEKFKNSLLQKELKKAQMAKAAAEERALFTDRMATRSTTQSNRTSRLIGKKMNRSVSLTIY
# T4 sequence (Q96SW2 whole entry): as the sequence (Q96SW2 whole entry) above
# T4 sequence (Q16531 whole entry partner): as the sequence (Q16531 whole entry partner) above
# T1 sequence (Q9UKS7 whole entry): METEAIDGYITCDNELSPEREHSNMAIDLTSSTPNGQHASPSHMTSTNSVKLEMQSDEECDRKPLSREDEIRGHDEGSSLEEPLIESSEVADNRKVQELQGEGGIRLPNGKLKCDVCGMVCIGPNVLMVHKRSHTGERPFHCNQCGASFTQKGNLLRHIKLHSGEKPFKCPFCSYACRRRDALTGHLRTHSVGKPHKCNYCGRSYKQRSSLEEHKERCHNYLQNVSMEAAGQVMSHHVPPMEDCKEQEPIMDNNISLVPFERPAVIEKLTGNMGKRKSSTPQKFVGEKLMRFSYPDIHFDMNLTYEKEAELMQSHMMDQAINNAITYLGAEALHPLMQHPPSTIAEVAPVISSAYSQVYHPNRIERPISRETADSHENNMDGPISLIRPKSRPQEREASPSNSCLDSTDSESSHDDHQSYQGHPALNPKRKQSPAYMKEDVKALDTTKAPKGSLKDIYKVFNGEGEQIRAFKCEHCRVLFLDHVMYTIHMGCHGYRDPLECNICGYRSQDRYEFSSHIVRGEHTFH
# T1 sequence (Q96SW2 whole entry): as the sequence (Q96SW2 whole entry) above
# T1 sequence (Q16531 whole entry partner): as the sequence (Q16531 whole entry partner) above
SMILES,IKZF2 substrate protein remaining % (IKZF2),IKZF 1 substrate protein remaining % (IKZF1),IC50 (TMD8),IC50 [1],Weel substrate protein remaining % (WEE1),IC50 [2],GSPT1 substrate protein remaining % (GSPT1),CK1a substrate protein remaining % (CK1α),IC50 (NCI-H1975),IKZF3 substrate protein remaining % (IKZF3),IC50 [3]
"Cc1cc2c(C3=CCN(Cc4ccc5c(c4)CN(C4CCC(=O)NC4=O)C5=O)CC3)ncnc2s1 (stereo not shown) [GT-04704, 3-(5-((4-(6-methylthieno[2,3-d]pyrimidin-4-yl)-3,6-dihydropyridin-1(2H)-yl)methyl)-1-oxoisoindolin-2-yl)piperidine-2,6-dione]",A (0% ≤ substrate protein remaining % ≤ 80%),A (0% ≤ substrate protein remaining % ≤ 80%),10 to 50 nM,< 500 nM,A (0% ≤ substrate protein remaining % ≤ 80%),10 to 50 nM,A (0% ≤ substrate protein remaining % ≤ 80%),A (0% ≤ substrate protein remaining % ≤ 80%),10 to 50 nM,A (0% ≤ substrate protein remaining % ≤ 80%),1 to 5 nM
"O=C1CCC(N2Cc3cc(CN4CC=C(c5ccco5)CC4)ccc3C2=O)C(=O)N1 (stereo not shown) [GT-04617, 3-(5-((4-(furan-2-yl)-3,6-dihydropyridin-1(2H)-yl)methyl)-1-oxoisoindolin-2-yl)piperidine-2,6-dione]",A (0% ≤ substrate protein remaining % ≤ 80%),A (0% ≤ substrate protein remaining % ≤ 80%),100 to 500 nM,< 500 nM,A (0% ≤ substrate protein remaining % ≤ 80%),10 to 50 nM,A (0% ≤ substrate protein remaining % ≤ 80%),B (80%< substrate protein remaining %≤ 100%),100 to 500 nM,A (0% ≤ substrate protein remaining % ≤ 80%),5 to 10 nM
"Cc1ccsc1C1=CCN(Cc2cc(F)c3c(c2)CN(C2CCC(=O)NC2=O)C3=O)CC1 (stereo not shown) [GT-04730, 3-(7-fluoro-5-((4-(3-methylthiophen-2-yl)-3,6-dihydropyridin-1(2H)-yl)methyl)-1-oxoisoindolin-2-yl)piperidine-2,6-dione]",A (0% ≤ substrate protein remaining % ≤ 80%),A (0% ≤ substrate protein remaining % ≤ 80%),10 to 50 nM,500 to 1000 nM,A (0% ≤ substrate protein remaining % ≤ 80%),10 to 50 nM,A (0% ≤ substrate protein remaining % ≤ 80%),A (0% ≤ substrate protein remaining % ≤ 80%),10 to 50 nM,A (0% ≤ substrate protein remaining % ≤ 80%),1 to 5 nM
"O=C1CCC(N2Cc3cc(CN4CC(=C5CCOc6cc(F)ccc65)C4)ccc3C2=O)C(=O)N1 (stereo not shown) [GT-04701, 3-(5-((3-(7-fluorochroman-4-ylidene)azetidin-1-yl)methyl)-1-oxoisoindolin-2-yl)piperidine-2,6-dione]",A (0% ≤ substrate protein remaining % ≤ 80%),A (0% ≤ substrate protein remaining % ≤ 80%),50 to 100 nM,< 500 nM,A (0% ≤ substrate protein remaining % ≤ 80%),10 to 50 nM,A (0% ≤ substrate protein remaining % ≤ 80%),A (0% ≤ substrate protein remaining % ≤ 80%),50 to 100 nM,A (0% ≤ substrate protein remaining % ≤ 80%),1 to 5 nM
"Cc1ccsc1C1=CCN(Cc2ccc3c(c2F)CN(C2CCC(=O)NC2=O)C3=O)CC1 (stereo not shown) [GT-04729, 3-(4-fluoro-5-((4-(3-methylthiophen-2-yl)-3,6-dihydropyridin-1(2H)-yl)methyl)-1-oxoisoindolin-2-yl)piperidine-2,6-dione]",A (0% ≤ substrate protein remaining % ≤ 80%),A (0% ≤ substrate protein remaining % ≤ 80%),10 to 50 nM,500 to 1000 nM,A (0% ≤ substrate protein remaining % ≤ 80%),1 to 5 nM,A (0% ≤ substrate protein remaining % ≤ 80%),B (80%< substrate protein remaining %≤ 100%),10 to 50 nM,A (0% ≤ substrate protein remaining % ≤ 80%),1 to 5 nM
